The target of this test is Amyloid-beta precursor protein (Homo sapiens) (UniProt P05067). In words: Binding affinity to amyloid beta (1 to 40) (unknown origin) assessed as increase in fluorescence after 3 hrs by UV-spectra analysis.
Chain of Amyloid-beta precursor protein (Homo sapiens) (P05067 whole entry): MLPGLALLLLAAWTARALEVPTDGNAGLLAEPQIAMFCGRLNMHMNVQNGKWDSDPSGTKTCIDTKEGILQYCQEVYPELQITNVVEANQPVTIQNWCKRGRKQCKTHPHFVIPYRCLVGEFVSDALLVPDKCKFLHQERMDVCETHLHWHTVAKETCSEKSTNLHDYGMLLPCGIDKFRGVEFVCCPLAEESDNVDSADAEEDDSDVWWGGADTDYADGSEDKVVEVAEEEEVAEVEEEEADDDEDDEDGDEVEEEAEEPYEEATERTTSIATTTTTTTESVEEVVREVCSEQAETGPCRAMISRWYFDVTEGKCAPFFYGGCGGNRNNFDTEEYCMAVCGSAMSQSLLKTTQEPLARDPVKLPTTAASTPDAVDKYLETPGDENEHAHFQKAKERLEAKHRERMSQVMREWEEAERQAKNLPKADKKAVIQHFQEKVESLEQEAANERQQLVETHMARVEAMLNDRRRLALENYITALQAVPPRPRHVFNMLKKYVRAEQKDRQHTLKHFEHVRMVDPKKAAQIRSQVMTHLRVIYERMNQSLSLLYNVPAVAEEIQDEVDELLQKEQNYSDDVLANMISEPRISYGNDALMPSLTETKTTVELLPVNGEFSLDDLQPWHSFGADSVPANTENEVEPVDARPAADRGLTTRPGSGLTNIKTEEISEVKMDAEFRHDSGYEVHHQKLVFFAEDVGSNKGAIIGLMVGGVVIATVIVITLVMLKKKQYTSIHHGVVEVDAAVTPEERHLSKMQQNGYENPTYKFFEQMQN

As for `Cc1c(O)c(=O)ccn1-c1ccc(-c2nc3ccccc3o2)cc1`, the Activity came to 3%.

As to `Cc1c(O)c(=O)ccn1-c1ccc(-c2nc3ccccc3s2)cc1`, the Activity stood at 50%.

Source of the values: ChEMBL document CHEMBL3603799, “3-Hydroxy-4-pyridinone derivatives designed for fluorescence studies to determine interaction with amyloid protein as well as cell permeability” (Bioorg Med Chem Lett, 2015).
